Measured values from PubChem BioAssay AID504752 (National Center for Advancing Translational Sciences (NCATS), 2011).

Test: Inhibitors of Cruzain: PBS Stability Profiling Assay
Settings: PBS pH 7 stability, 37 C, LC-MS/MS, 48 h; at 2 µM; hits give high values
Text: Chagas Disease is a neglected tropical disease that affects over 16 million people in Latin America. The cysteine protease cruzain is essential for the survival Trypanosoma cruzi, the parasitic agent responsible for Chagas disease. Potential intervention for T. cruzi includes the inhibition of cruzain. This bioassay will summarize the ongoing development of small molecule cruzain inhbitiors. Currently, a screen of ~200k compounds and through extensive follow-up work a probe was identified. To further characterize the probe, it was tested in in vitro ADME assays. The stability of the lead compound in PBS buffer is tested because this parameter has a significant impact on many ADME-concerned properties of drugs, such as uptake, distribution, transport, and eventually bioavailability. NIH Chemical Genomics Center [NCGC] NIH Molecular Libraries Probe Production Centers Network [MLPCN] MLSCN Grant: DA024891-01 PI Name: Dr. Brian Shoichet; University of California, San Francisco
2uM of compound is incubated in PBS buffer at pH 7; the reference compound is procaine. Compounds are incubated at 37 deg C for the pre-determined time periods and the when aliquots are removed. Samples are analyzed with LC-MS/MS.

percent remaining: 100%
SMILES: Cc1ccc(OCCn2c(CCNC(=O)C3CCCCC3)nc3ccccc32)cc1
